Test: Analysis of the bisabolol content on the skin (GC/MS of alcohol-pad extract) after transfer from laundered clothing article
Type: in vivo, human
Source text: Protocol: • One cotton sock from the laundry described previously was inverted to expose the inner surface. • Left arm of a subject was washed with unfragranced soap followed by 95% alcohol wipe to remove any foreign material and soluble oils. • Rubbed previously laundered cotton sock with Symrelief onto subject's […]. Seven times on one side then 8 times on the other sock surface.
(§1) Protocol: • Applied 3 commercially available alcohol pads (which had been soaked in 95% ethanol) onto arm area. Allowed to dry completely. • The alcohol wipe pads were transferred into 1 oz glass jar and added 5 grams diethylether and allowed to extract for 2 hours. • Ether extract was concentrated to 100 μl under a nitrogen stream. • 2.5 μl was manually injected into a GC/MS equipt with a carbowax column and run with a splitless method. • Bisabolol peak was identified in the sample by the characteristic ions in the mass spectrum. • The control arm was treated in the same manner with no identified bisabolol.
Protocol: • One of a pair of cotton/poly socks from the laundry described previously was given to a test subject removed and blind codded. The sock was paired with a blind codded sock that was un-laundered. • The ventral surface of the subjects ankles were washed with unfragranced soap followed by 95% alcohol wipe to remove any foreign material and soluble oils. • The pair of socks were worn by a test subject for 8 hours in a normal use setting.
as §1, with “•” for “Protocol: •”, “12” for “3”, “bisabolol. […]” for “bisabolol.”

Measured: Bisabolol peak in skin wipe extract (GC/MS, characteristic ions)

CC(C)=CCC[C@](C)(O)C1CC=C(C)CC1 (stereo partly drawn) [Bisabolol, bisabolol]
identified: laundered cotton sock (softener with 5% Symcap G1 Bisabolol slurry) rubbed onto subject's arm, 7 and 8 times, 3 alcohol pads | laundered cotton/poly sock worn for 8 hours in normal use, 12 alcohol pads | laundered thermal shirt worn for 8 hours in normal use, upper arms, 12 alcohol pads

— patent US20240122816A1, “ARTICLES FOR INDIRECT TRANSFER OF COSMETIC ACTIVES TO SKIN” (SYMRISE AG, priority 2019, published 2024)
